Results taken from patent publication US8158630B2, “Application of 2,5 -dihydroxymethyl-3,6-dimethyl pyrazine and its derivates in pharmacy” (Nanjing University of Chinese Medicine, priority 2010, dated 2012).

Experiments:
[1] = test system: isolated hearts of rats; experiment: Effects on the cardiac contractility of isolated hearts of rats (Langendorff perfusion); set-up: species or system rat; details: 0.1 mmol/L; for heart dysrhythmia / +dp/dtmax (maximum value of left ventricular pressure increase) / Heart rate / LVEDP (left ventricular diastolic pressure) / LVSP (left ventricular systolic pressure) / −dp/dtmax (maximum value of left ventricular pressure decrease): isolated rat heart; for +dp/dtmax (maximum value of left ventricular pressure increase) / Heart rate / LVEDP (left ventricular diastolic pressure) / LVSP (left ventricular systolic pressure) / −dp/dtmax (maximum value of left ventricular pressure decrease): after administration
Description: Intraperitoneal injection of 1.2 g/kg urethane is carried out on rats and the hearts are collected. After the hearts are rinsed and cut in 100% oxygen saturated physiological saline at 0° C., they are connected to modified Langendorff heart perfusion equipments to couduct retrogressive perfusion via the aorta. The perfusate (in mmol/L) is NaCl 117, KCl 5.7, CaCl2 1.8, NaHCO3 4.4, NaH2PO4 1.5, MgCl2 1.7, HEPES 20, Glucose 11, Creatine 10, Taurine 20, and NaOH is used to adjust the pH value to 7.3. The probe of the pressure receptor is inserted into the left ventricle via the left auricle, and BioAmp amplifier is used to record the left ventricular pressure, and the electrocardiogram is measured at the same time.

[2] = test system: normal rats; experiment: Effects on heart functions and hemodynamics of normal rats, intravenous administration; type: in vivo, rat; details: for LVEDP / LVSP / +dp/dtmax / −dp/dtmax: normal rats, within one minute after administration, n = 10; for +dp/dtmax / −dp/dtmax: in mmHg/s (unit assumed)
Description: After the rats are paralysed with 20% ethyl urethane (urethane) (1 g/kg) and fixed on a thermostatical operation table on their backs, needle-electrodes for electrocardiogram are subcutaneously inserted from their extremities and the lead II […] (ECG) and the heart rate (HR) are measured by inputting into the multiplying channel device. The right common carotid artery is isolated from the inner side of sternocleidomastoid muscle after the […] and temperature (37° C.) become stable, and the right common carotid artery is ligated at its head end and left ventricular cannulation is carried out. It is connected with the polygraph via a pressure transducer to measure the heart function indexes of left ventricle, in the meantime, the right femoral vein is isolated and venous cannulation is carried out for the intravenous administration, and the non-inserted end is connected to a syringe that is filled with 40 IU/mL heparin physiological saline, the multi-channel physiological signal acquisition and processing system is used to record the data. After the measured indexes become stable, the data at one minute before the drug administration are recorded as the blank control, and Liguzinediol is dissolved in physiological saline and then use 5, 10 and 20 mg/kg respectively as the low, mediate and high dosage groups, and the results within one minute after the intravenous administration are shown in Table 2. The heart rate aberration that is induced by Liguzinediol is not found in the three dosage groups after administration.

Row | Compound | cardiac contractility of isolated hearts of rats [1] | heart dysrhythmia [1] | +dp/dtmax (maximum value of left ventricular pressure increase) [1] | Heart rate [1] | LVEDP (left ventricular diastolic pressure) [1] | LVSP (left ventricular systolic pressure) [1] | −dp/dtmax (maximum value of left ventricular pressure decrease) [1] | other results
1 | CC(=O)OCc1nc(C)c(COC(C)=O)nc1C [Compound 1, 2,5-diacetoxymethyl-3,6-dimethyl pyrazine] | significantly increase | no heart dysrhythmia is found | 831.9 ± 268.2 | 191.6 ± 58.0^Δ | −14.4 ± 7.2 | 26.1 ± 12.5 | −884.9 ± 347.0 | –
2 | Cc1nc(CO)c(C)nc1CO [Compound 2, 2,5-dihydroxymethyl-3,6-dimethyl pyrazine] | significantly increase | no heart dysrhythmia is found | 790.3 ± 251.6 | 154.4 ± 28.8^Δ | −13.0 ± 2.3 | 26.9 ± 5.9 | −763.5 ± 188.0 | LVEDP ([2]; 5 mg/kg i.v.): 7.9 ± 6.3; LVSP ([2]; 5 mg/kg i.v.): 132.7 ± 9.1; +dp/dtmax ([2]; 5 mg/kg i.v.): 12027 ± 1388; −dp/dtmax ([2]; 5 mg/kg i.v.): −10238 ± 1247; LVEDP ([2]; 10 mg/kg i.v.): 6.9 ± 6.1; LVSP ([2]; 10 mg/kg i.v.): 135.7 ± 10.9; +dp/dtmax ([2]; 10 mg/kg i.v.): 11484 ± 1410; −dp/dtmax ([2]; 10 mg/kg i.v.): −9667 ± 670; LVEDP ([2]; 20 mg/kg i.v.): 6.3 ± 4.8; LVSP ([2]; 20 mg/kg i.v.): 139.7 ± 4.6; +dp/dtmax ([2]; 20 mg/kg i.v.): 12347 ± 1030; −dp/dtmax ([2]; 20 mg/kg i.v.): −9964 ± 1045; left ventricular contraction and diastolic function of rat heart ([2]; rats, 5, 10 and 20 mg/kg i.v.): significantly increase the left ventricular contraction and improve the diastolic function; heart rate aberration ([2]; rats, 5, 10 and 20 mg/kg i.v., after administration): not found
